Experimental data reported in patent publication US12370193B2, “Method of inhibiting TREM-1” (UNIVERSITY OF FLORIDA RESEARCH FOUNDATION, INCORPORATED, priority 2019, dated 2025).
pEC50: −log10 of the molar value.

Key:
[1] = tested on: collagen-induced arthritis; assay: Collagen-induced arthritis (CIA) mouse model
Description: Clinical score was monitored every day after boosting during 18 days. […] The dosage of all compounds was identical in each group.
Briefly, DBA/1J mice were injected with chicken type II collagen on day 1 and then each animal received a boost injection of collagen on Day 21. Compound treatment, initiated on day 3-post boost injection, was administered intraperitoneally at 20 mg/kg twice-a-day for a total of 16 days. […] Mice: All mice were maintained in a specific pathogen-free environment in accordance with institutional protocol. […] Female DBA/1J mice were purchased from Taconic. CIA was induced in 8 weeks as previously described^40.

[2] = target: T1, LXRα (Homo sapiens, UniProt Q13133); assay: Gal4-LXRα co-transfection promoter-reporter assay; assay type: cell-based; conditions: HEK293T cells, read-out: LXR agonist activity EC50
T1 sequence (Q13133 209-447 limits assumed): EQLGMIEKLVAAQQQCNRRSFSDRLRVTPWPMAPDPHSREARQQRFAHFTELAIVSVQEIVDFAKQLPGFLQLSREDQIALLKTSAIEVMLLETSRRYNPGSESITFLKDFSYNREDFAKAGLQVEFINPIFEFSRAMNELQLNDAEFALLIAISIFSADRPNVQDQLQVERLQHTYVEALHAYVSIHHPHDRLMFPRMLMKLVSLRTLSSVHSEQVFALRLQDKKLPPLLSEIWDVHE
From the text: FIGS. 1A to 1E: Pan modulator with poly-pharmacology. […] FIG. 1D is a graph showing PPARγ target genes (aP2 and CD36) expression in OP9 cells with and without MDI (IBMX, dexamethasone, insulin) treatment. […] SR1903 is represented as orange sticks while PPARγ, RORγ, and LXRβ are depicted as blue ribbons respectively. Specific residues driving the interaction labelled and shown as sticks as well. […] FIG. 1F are graphs showing RORγ target genes (IL17A and IL17F) expression in EL4 cells.
(§1) Reporter gene assays: Twenty-four hours before transfection, HEK293T cells were plated in 96-well plates at a density of 15×10^3 cells per well. UAS:luciferase reporter and Ga14-RORa, Gal4-RORb, Gal4-RORγ, Gal4-LXRα, or Gal4 PPARγ DNA co-transfections were performed using X-tremeGENE 9 (Roche). Twenty-four hours after transfection, the cells were treated with vehicle or compound. Twenty-four hours after treatment, the luciferase activity was measured using the Dual-Glo luciferase assay system (Promega). Results were analyzed using GraphPad Prism software.

[3] = Tolerability following chronic administration; assay type: in vivo
[4] = tested on: RORα; assay: Gal4-RORα co-transfection promoter-reporter assay; assay type: cell-based; conditions: Gal4 assay format
Description: as §1

Compound: Cc1cc(CN2CCN(Cc3ccncc3)CC2)ccc1-c1ccc(C(O)(C(F)(F)F)C(F)(F)F)cc1 [SR1903, 1,1,1,3,3,3-hexafluoro-2-(2′-methyl-4′-((4-(pyridin-4-ylmethyl)piperazin-1-yl)methyl)-[1,1′-biphenyl]-4-yl)propan-2-ol]
- enlargement of the liver ([1]; CIA mice, 20 mg/kg): did not cause enlargement of the liver
- thymocyte differentiation and survival ([1]; CIA mice, compared to GW3965 or T0901317): enhanced thymocyte differentiation and survival
- arthritis clinical score ([1]; Day 34, 20 mg/kg i.p. twice-a-day, vehicle 13.6±2.9): 3.8±2.5
- intrathymic cell number ([1]; treated mice, unlike SR2211 treated mice): enriched
- pEC50 [2]: 6.16
- tolerability [3]: very well tolerated
- activity on RORα [4]: lack activity
